Laboratory results as given in patent publication US6001389A, “Compositions containing biologically active silicon” (priority 1997, dated 1999).

Tests used:
[1] = test system: desquamine; test: desquamine-like activity of an epidermic extract (hydrolysis of synthetic specific substrate of tPA); assay type: biochemical
Procedure: Effect of a diethylphosphatoethyltrisilanol's precursor, the diethylphosphatoethyltriethoxysilane, on the "desquame-like" activity of an epidermic extract.
Desquamine is obtained from an epidermic extract according to the Brysk and al (1994) method. The desquamine activity is evaluated by its ability to hydrolyze the synthetic specific substrate of the tPA for which it has a very strong affinity.

[2] = test system: collagenase type activity of human chondrocytes; test: collagenase type enzymatic activity of human chondrocytes culture (Cawston and Barrett method); assay type: cell-based; conditions: no IL-1
Procedure: Effect of a diethylphosphatoethyltrisilanol's precursor, the diethylphosphatoethyltriethoxysilane, on the collagenase type activity of human chondrocytes culture.
Chondrocytes cultures are carried out from human cartilages sampled on cadavers 12 hours after the death. In aqueous buffered medium (pH 7.0-7.4), the diethylphosphatoethyltriethoxysilane releases the corresponding diethylphosphatoethyltrisilanol, which is the active silanol. The collagenase type enzymatic activity of these chondrocytes cultures is quantified following the Cawston and Barrett method.

[3] = test system: collagenase type activity of human chondrocytes; test: collagenase type enzymatic activity of human chondrocytes cultures after IL-1 induction (Cawston and Barrett method); assay type: cell-based; conditions: after IL-1 treatment
Procedure: Effect of a diethylphosphatoethyltrisilanol's precursor, the diethylphosphatoethyltriethoxysilane, on the collagenase type activity of human chondrocytes cultures after IL-1 induction.
Chondrocytes cultures are carried out from human cartilages sampled on cadavers 12 hours after the death. In aqueous buffered medium (pH 7.0-7.4), the diethylphosphatoethyltriethoxysilane releases the corresponding diethylphosphatoethyltrisilanol, which is the active silanol. The collagenase type enzymatic activity of these chondrocytes cultures is quantified following the Cawston and Barrett method after previous treatment of the cultures by IL-1.

[4] = test system: stromelysine type activity of human chondrocytes; test: stromelysine type enzymatic activity of human chondrocytes culture (digestion of casein coupled with resorufine); assay type: cell-based; conditions: no IL-1
Procedure: Effect of a diethylphosphatoethyltrisilanol's precursor, the diethylphosphatoethyltriethoxysilane, on the stromelysine type activity of human chondrocytes culture.
Chondrocytes cultures are carried out from human cartilages sampled on cadavers 12 hours after the death. In aqueous buffered medium (pH 7.0-7.4), the diethylphosphatoethyltriethoxysilane releases the corresponding diethylphosphatoethyltrisilanol, which is the active silanol. The stromelysine type enzymatic activity of these chondrocytes cultures is quantified by the method of digestion of casein coupled with resorufine.

[5] = test system: stromelysine type activity of human chondrocytes; test: stromelysine type enzymatic activity of human chondrocytes culture after IL-1 induction (digestion of casein coupled with resorufine); assay type: cell-based; conditions: after IL-1 treatment
Procedure: Effect of a diethylphosphatoethyltrisilanol's precursor, the diethylphosphatoethyltriethoxysilane, on the stromelysine type activity of human chondrocytes culture after IL-1 induction.
Human chondrocytes cultures are carried out from human cartilages sampled on cadavers 12 hours after the death. In aqueous buffered medium (pH 7.0-7.4), the diethylphosphatoethyltriethoxysilane releases the corresponding diethylphosphatoethyltrisilanol, which is the active silanol. The stromelysine type enzymatic activity of these chondrocytes cultures is quantified, after previous treatment of cultures with IL-1, by the method of digestion of casein coupled with resorufine.

[6] = test system: osteoblasts alkaline phosphatase; test: synthetic activity of osteoblasts (alkaline phosphatase activity); assay type: cell-based, human
Procedure: Effect of a diethylphosphatoethyltrisilanol's precursor, the diethylphosphatoethyltriethoxysilane, on the synthetic activity of osteoblasts.
Osteoblasts cultures are carried out from human bones sampled on cadavers 12 hours after the death. In aqueous buffered medium (pH 7.0-7.4), the diethylphosphatoethyltriethoxysilane releases the corresponding diethylphosphatoethyltrisilanol, which is the active silanol. The synthetic activity of these osteoblasts is quantified by the measure of the alkaline phosphatase activity.

[7] = test system: IL-6 of osteoblasts; test: IL-6 level of osteoblasts (ELISA); assay type: cell-based, human
Procedure: Effect of a diethylphosphatoethyltrisilanol's precursor, the diethylphosphatoethyltriethoxysilane, on the IL-6 activity of osteoblasts.
Osteoblasts cultures are carried out from human bones sampled on cadavers 12 hours after the death. In aqueous buffered medium (pH 7.0-7.4), the diethylphosphatoethyltriethoxysilane releases the corresponding diethylphosphatoethyltrisilanol, which is the active silanol. IL-6 is quantified by the ELISA technique.

[8] = test system: chymotrypsine-like activity of epidermic extract; test: chymotrypsine-like activity of an epidermic extract (BTEE degradation); assay type: biochemical
Procedure: Effect of a diethylphosphatoethyltrisilanol's precursor, the diethylphosphatoethyltriethoxysilane, on the chymotrypsine type activity of an epidermic extract.
After sampling from a cutaneous tissue, the epidermis is cut then put in an appropriate buffered solution. The solution is homogenized with Ultra Turax (40 C.) until a satisfying epidermic extract is obtained. The chymotrypsine-like activity of this extract is assessed by the measure of the N alpha-Benzoyl-L-Tyrosine Ethyl Ester (BTEE) degradation (specific synthetic substrate).

Structure (SMILES) | effect on "desquamine-like" activity of the epidermic extract, in words [1] | inhibition of the "desquamine-like" activity of the epidermic extract ([1]; 300 μg/ml) | inhibition of "collagenase-like" activity of the chondrocytes ([2]; 500 μg/ml) | effect on "collagenase-like" activity of the chondrocytes, in words [2] | inhibition of "collagenase-like" activity of the chondrocytes ([3]; 500 μg/ml) | effect on "collagenase-like" activity of the chondrocytes, in words [3] | inhibition of "collagenase-like" activity of the chondrocytes (stromelysine type activity test) ([4]; 500 μg/ml) | effect on "collagenase-like" activity of the chondrocytes (stromelysine type activity test), in words [4] | inhibition of "collagenase-like" activity of the chondrocytes (stromelysine type activity test) ([5]; 500 μg/ml) | effect on "collagenase-like" activity of the chondrocytes (stromelysine type activity test), in words [5] | effect on osteoblasts alkaline phosphatases activity, in words [6] | increase of the osteoblasts alkaline phosphatases activity (printed "inhibition") ([6]; 100 μg/ml) | effect on osteoblasts IL-6 level, in words [7] | decrease of the osteoblasts IL-6 level (inhibition) ([7]; 100 μg/ml) | effect on "chymotrypsine-like" activity of the epidermic extract, in words [8] | inhibition of "chymotrypsine-like" activity of the epidermic extract ([8]; 400 μg/ml (printed 400 μ0 g/ml))
C[Si](O)(O)O [CH3 Si(OH)3] | dose-dependent inhibition | 25% | – | – | – | – | – | – | – | – | – | – | – | – | – | –
CCOP(=O)(CC[Si](O)(O)O)OCC [diethylphosphatoethyltrisilanol] | – | – | 30% | dose-dependent decrease | 21% | dose-dependent decrease | 37% | dose-dependent decrease | 18% | dose-dependent decrease | dose-dependent increase | +24% | dose-dependent decrease | -49% | dose-dependant decrease | 27%
